The values that follow come from PMC12169615, “Fluorescent 4‑Nitrobenzo-2-oxa-1,3-diazole-Coupled Bile Acids as Probe Substrates of Hepatic and Intestinal Bile Acid Transporters of the Solute Carrier Families SLC10 and SLCO” (Journal of Medicinal Chemistry, 2025).

One series has as its target T1, mouse mAsbt (Mus musculus, UniProt P70172).
T1 sequence (P70172 1-348): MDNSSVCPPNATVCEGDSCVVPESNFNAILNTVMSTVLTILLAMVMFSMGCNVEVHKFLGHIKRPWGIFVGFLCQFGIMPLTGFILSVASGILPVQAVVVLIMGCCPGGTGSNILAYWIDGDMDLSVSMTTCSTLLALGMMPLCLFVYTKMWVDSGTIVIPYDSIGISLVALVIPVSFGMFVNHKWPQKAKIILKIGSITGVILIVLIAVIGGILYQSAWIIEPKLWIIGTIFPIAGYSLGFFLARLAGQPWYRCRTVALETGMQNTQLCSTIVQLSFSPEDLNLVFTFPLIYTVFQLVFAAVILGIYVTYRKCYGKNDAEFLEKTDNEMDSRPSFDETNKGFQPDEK
The experiment in a line: cell-based.

The target of the next series is T2, human ASBT (Homo sapiens, UniProt Q12908).
T2 sequence (Q12908 1-348): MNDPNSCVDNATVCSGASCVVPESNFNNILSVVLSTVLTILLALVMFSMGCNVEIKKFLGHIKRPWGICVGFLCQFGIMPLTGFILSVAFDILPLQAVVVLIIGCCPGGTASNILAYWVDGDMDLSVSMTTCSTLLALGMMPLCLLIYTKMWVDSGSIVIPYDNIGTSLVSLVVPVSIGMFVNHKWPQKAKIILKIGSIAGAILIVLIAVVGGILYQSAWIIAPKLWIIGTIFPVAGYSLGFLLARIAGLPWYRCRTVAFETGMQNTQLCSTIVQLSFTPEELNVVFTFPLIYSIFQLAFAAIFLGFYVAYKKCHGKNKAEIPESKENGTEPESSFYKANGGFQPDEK
The experiment in a line: cell-based.

On the set-up of series [1]: method as in Petzinger et al. As to conditions: after in situ ileal perfusion, rat, within 120 min; ref Petzinger et al.; cited from earlier work.

As usually defined, the IC50 is the point on the concentration scale where inhibition reaches its midpoint. A low value points to higher potency.

Description for human ASBT: (§1) HEK293 cells stably expressing human NTCP (A), mouse mNtcp (B), human ASBT (C), or mouse mAsbt (D) were used for transport experiments with 3α-NBD-GCA (16d) as the substrate. Fluorescence data in the absence of inhibitors were set as 100% and the fluorescence levels in sodium-free transport buffer were set to 0%. […] Half-maximal inhibitory concentrations (IC50) were calculated by nonlinear regression analysis.
(§2) For quantitative transport experiments, cells were seeded onto polylysine-coated 96-well plates and grown to confluence over 72 h at 37 °C. Then, cells were washed three times with phosphate-buffered saline (PBS), containing 137 mM NaCl, 2.7 mM KCl, 1.5 mM, KH2PO4, and 7.3 mM Na2HPO4 (pH 7.4) followed by preincubation in sodium transport buffer (STB) containing 142.9 mM NaCl, 4.7 mM KCl, 1.2 mM MgSO4, 1.2 mM KH2PO4, 1.8 mM CaCl2, and 20 mM HEPES (pH 7.4). For transport assays under sodium-free conditions (-Na^+), sodium chloride of the STB was substituted with equimolar concentrations of choline chloride. […] Then, transport experiments were started by adding 20 μL STB containing 125 μM of 3α-NBD-GCA (final substrate concentration: 25 μM). All transport experiments were stopped after 10 min, if not otherwise indicated, by aspirating the transport buffer and washing the cells twice with ice-cold PBS. […]
Description for mouse mAsbt: as §1, §2

With `Cc1c(C)c2c(c(C)c1O)CCC(C)(COc1ccc(CC3SC(=O)NC3=O)cc1)O2` (stereo not drawn) [troglitazone], the values for the IC50 on mouse mAsbt and against human ASBT were 18.9 µM and 19.5 µM, respectively.
For the compound `C[C@H](CCC(=O)NCCS(=O)(=O)O)[C@H]1CC[C@H]2[C@@H]3[C@H](O)C[C@@H]4CC(Nc5ccc([N+](=O)[O-])c6nonc56)CC[C@]4(C)[C@H]3C[C@H](O)[C@]12C` (stereo partly drawn) [S4148], in series [1], the “Compound secreted into bile” value was 76%.
